From ChEMBL document CHEMBL4483862, “Open-source discovery of chemical leads for next-generation chemoprotective antimalarials” (2018) come the findings set out here.

This test concerns Plasmodium berghei. Kind of test: Luciferase/luciferin-expressing antifolate-resistant parasites were used to infect a culture of HepG2 cells that were pre-incubated with compounds. Infected hepatocytes emit light due to the luciferase reaction. Assay results are presented as the percent inhibition of light emission compared to control. […]. The format is functional. The settings on record: sporozoite; for IC90: read-out: LUCIFERASE INFECTION ASSAY - IC90.

Where [1] appears, read: read-out: LUCIFERASE INFECTION ASSAY - IC50.

Turning to `Cc1ccc(-c2nn(-c3ccccc3)cc2/C=C/C(=O)NCc2ccc(-n3ccnc3)nc2)cc1`, the IC90 is over 10 µM. Also, where the note is “PBLUC_HILL_SLOPE 2.1, PBLUC_R_SQUARED 0.668, read-out: LUCIFERASE INFECTION ASSAY - IC50”, the IC50 came to 5.12 µM.
For `Cc1ccc(-n2c(N(C)C)nc(/C=C(\C#N)C(=O)NC(C)c3ccccc3)c2Cl)cc1` (stereo not given), the IC90 was over 10 µM. Besides, the IC50 (FFLUC_HILL_SLOPE 1.62, FFLUC_R_SQUARED 0.252, read-out: LUCIFERASE INFECTION ASSAY - IC50) was over 10 µM.
`CC(=O)c1ccc(NC(=O)Cn2nc(-c3ccco3)ccc2=O)cc1`: the IC90 is over 9.78 µM. Further, for the setting “FFLUC_HILL_SLOPE 14.3, FFLUC_R_SQUARED 0.29, read-out: LUCIFERASE INFECTION ASSAY - IC50”, the IC50 is over 9.78 µM.
With `Cc1cc(C)c(S(=O)(=O)N2CCC(C(=O)N3CCn4c3nc3ccccc34)CC2)c(C)c1`, the IC90 was over 10 µM. In addition, the IC50 (PBLUC_HILL_SLOPE 1.44, PBLUC_R_SQUARED 0.637, read-out: LUCIFERASE INFECTION ASSAY - IC50) worked out at 3.45 µM.
In the case of `CC(=O)c1ccccc1NC(=O)COC(=O)c1c2c(nc3ccccc13)CCC2`, the IC90 was over 10 µM. The IC50 (HEPG2TOX_HILL_SLOPE 1.9, HEPG2TOX_R_SQUARED 0.384, PBLUC_HILL_SLOPE 3.75, PBLUC_R_SQUARED 0.218, read-out: LUCIFERASE INFECTION ASSAY - IC50) is 6.16 µM.
Regarding `O=C(CC(NC(=O)c1ccccc1Cl)c1ccccc1)Oc1ccc2c(c1)OCO2` (stereo not given), the IC90 was over 10 µM. Besides, under setting [1], the IC50 is over 10 µM.
On to `Cc1cc(=O)nc(N/N=C/c2cc(C)n(-c3ccccc3Cl)c2C)[nH]1`, for which the IC90 is over 10 µM. For the same molecule, the IC50 (PBLUC_HILL_SLOPE 2.91, PBLUC_R_SQUARED 0.512, read-out: LUCIFERASE INFECTION ASSAY - IC50) stood at 9.21 µM.
For the molecule `CC(C)(C)c1ccc(C2NCC(c3ccc(Cl)cc3Cl)c3c2[nH]c2ccccc32)cc1` (stereo not given), the IC90 was found to be 4.09 µM. For the same molecule, the IC50 (FFLUC_HILL_SLOPE 4.79, FFLUC_R_SQUARED 0.608, HEPG2TOX_HILL_SLOPE 0.722, HEPG2TOX_R_SQUARED 0.602, PBLUC_HILL_SLOPE 10.9, PBLUC_R_SQUARED 0.683, read-out: LUCIFERASE INFECTION ASSAY - IC50) was determined as 3.34 µM.
As for `CCc1cc2c(COC(=O)c3cc(C(C)=O)cn3C)cc(=O)oc2cc1O`, the IC90 is over 10 µM. For the same molecule, the IC50 (PBLUC_HILL_SLOPE 9.37, PBLUC_R_SQUARED 0.164, read-out: LUCIFERASE INFECTION ASSAY - IC50) amounted to 8.69 µM.
Turning to `CCOC(=O)c1c(C)nc(-c2ccco2)nc1SCc1ncc(-c2ccc(F)cc2)o1`, the IC90 came to 3.58 µM. For the same molecule, the IC50 (PBLUC_HILL_SLOPE 11.1, PBLUC_R_SQUARED 0.631, read-out: LUCIFERASE INFECTION ASSAY - IC50) was 2.94 µM.
For `N#Cc1c(Cl)cccc1N1CCCC1c1ccc2c(c1)OCCCO2` (stereo not given), the IC90 is over 10 µM. In addition, the 50% inhibitory concentration (IC50) (HEPG2TOX_HILL_SLOPE 1.92, HEPG2TOX_R_SQUARED 0.934, read-out: LUCIFERASE INFECTION ASSAY - IC50) is over 10 µM.
For the molecule `COc1ccc(C2CCCN2Cc2ccc(C(N)=O)cc2)c(OC)c1` (stereo not given), the IC90 was over 10 µM. In addition, under setting [1], the IC50 was over 10 µM.
In the case of `COc1ccc(CC(N)c2csc(NC(=O)Nc3ccccc3C(C)(C)C)n2)cc1` (stereo not given), the concentration for an effect of 90% (IC90) is 4.27 µM. Moreover, the IC50 (PBLUC_HILL_SLOPE 104, PBLUC_R_SQUARED 0.386, read-out: LUCIFERASE INFECTION ASSAY - IC50) was 4.18 µM.
As for `O=C(OCC(=O)N(CCc1ccccc1)Cc1ccccc1)c1ccccc1NCCO`, the IC90 is over 10 µM. The IC50 under setting [1] is over 10 µM.
As for `O=C(NC(c1ccccc1)C1CC1)c1cccc(S(=O)(=O)N2CCN(c3ccc(F)cc3)CC2)c1` (stereo not given), the IC90 is over 10 µM. Besides, the IC50 (FFLUC_HILL_SLOPE 1.82, FFLUC_R_SQUARED 0.654, PBLUC_HILL_SLOPE 3.16, PBLUC_R_SQUARED 0.76, read-out: LUCIFERASE INFECTION ASSAY - IC50) was found to be 7.34 µM.
Take `O=C(NCc1ccccc1)c1cccc(C2(CNc3cccc(OC(F)(F)F)c3)CC2)c1`: the IC90 was over 10 µM. Further, under setting [1], the IC50 was over 10 µM.
Consider `Cc1sc2ncnc(NC(C)C(=O)Nc3ccc4c(c3)OCCCO4)c2c1C` (stereo not given), for which the IC90 is over 10 µM. Further, the IC50 under setting [1] stood at 8.08 µM.
Consider `COc1cc(C(=O)N(C)C(c2ccccc2)c2ccccc2)ccc1OCC(C)C`, for which the IC90 was over 10 µM. Under “FFLUC_HILL_SLOPE 13.6, FFLUC_R_SQUARED 0.558, HEPG2TOX_HILL_SLOPE 7.8, HEPG2TOX_R_SQUARED 0.217, read-out: LUCIFERASE INFECTION ASSAY - IC50”, the concentration for half-maximal inhibition (IC50) is over 10 µM.
Consider `O=c1c(Cl)c(Cl)cnn1-c1ccc(Cl)cc1Cl`, for which the IC90 turned out to be 3.5 µM. Besides, the IC50 (HEPG2TOX_HILL_SLOPE 16.8, 1.83, HEPG2TOX_R_SQUARED 0.839, 0.915, PBLUC_HILL_SLOPE 1.48, 10.9, PBLUC_R_SQUARED 0.768, 0.409, read-out: LUCIFERASE INFECTION ASSAY - IC50) came to 3.64 µM.
Take `Cc1ccn2cc(C(=O)N3CCN(Cc4ccc(C(F)(F)F)cc4)CC3)nc2c1`: the IC90 was 3.77 µM. The IC50 (HEPG2TOX_HILL_SLOPE 2.22, HEPG2TOX_R_SQUARED 0.687, PBLUC_HILL_SLOPE 18.4, PBLUC_R_SQUARED 0.747, read-out: LUCIFERASE INFECTION ASSAY - IC50) came out at 3.35 µM.
As to `O=c1c(Cl)c(Cl)cnn1CCOc1cccc(Br)c1`, the IC90 was over 10 µM. Under setting [1], the IC50 was over 10 µM.
Regarding `O=C(NCc1cc(Cl)c2c(c1)OCCCO2)c1cnn(Cc2ccccc2)c1`, the IC90 is over 10 µM. Besides, the IC50 (HEPG2TOX_HILL_SLOPE 3.36, HEPG2TOX_R_SQUARED 0.962, PBLUC_HILL_SLOPE 1.54, PBLUC_R_SQUARED 0.197, read-out: LUCIFERASE INFECTION ASSAY - IC50) was determined as 9.57 µM.
With `CC(C)Oc1ccc(Nc2nccc3[nH]c(-c4ccccc4)cc23)cc1`, the IC90 is 4.19 µM. Moreover, under “HEPG2TOX_HILL_SLOPE 24.7, HEPG2TOX_R_SQUARED 0.868, PBLUC_HILL_SLOPE 10.9, PBLUC_R_SQUARED 0.493, read-out: LUCIFERASE INFECTION ASSAY - IC50”, the IC50 stood at 3.42 µM.
For `NC(=O)C1CCN(c2cc(-c3nc4ccccc4s3)c3ccccc3n2)CC1`, the IC90 was over 10 µM. In addition, the IC50 (PBLUC_HILL_SLOPE 7.92, PBLUC_R_SQUARED 0.452, read-out: LUCIFERASE INFECTION ASSAY - IC50) is 8.36 µM.
`Cc1ccc2nc(NC(=O)c3c(F)cccc3F)c(C(=O)NC3CCCC3)n2c1`: the IC90 amounted to 8.17 µM. Also, under “HEPG2TOX_HILL_SLOPE 0.446, HEPG2TOX_R_SQUARED 0.792, PBLUC_HILL_SLOPE 1.53, PBLUC_R_SQUARED 0.752, read-out: LUCIFERASE INFECTION ASSAY - IC50”, the IC50 came out at 1.95 µM.
As for `c1ccc(-c2cc3c(SCc4cscn4)ncnc3s2)cc1`, the IC90 was found to be 3.71 µM. For the same molecule, where the note is “PBLUC_HILL_SLOPE 12.2, PBLUC_R_SQUARED 0.61, read-out: LUCIFERASE INFECTION ASSAY - IC50”, the IC50 was determined as 3.1 µM.
As to `COc1ccc(-c2cc3ncnc(NCC4CN(Cc5ccccc5)CCO4)c3s2)cc1` (stereo not given), the IC90 is over 10 µM. For the same molecule, the IC50 (PBLUC_HILL_SLOPE 9.06, PBLUC_R_SQUARED 0.282, read-out: LUCIFERASE INFECTION ASSAY - IC50) worked out at 8.38 µM.
Take `COc1ccc(Sc2ccc([N+](=O)[O-])c3nonc23)cc1`: the IC90 came to 10.7 µM. For the setting “FFLUC_HILL_SLOPE 14.3, FFLUC_R_SQUARED 0.436, HEPG2TOX_HILL_SLOPE 9.62, HEPG2TOX_R_SQUARED 0.82, PBLUC_HILL_SLOPE 22.9, PBLUC_R_SQUARED 0.553, read-out: LUCIFERASE INFECTION ASSAY - IC50”, the IC50 was 9.76 µM.
As for `Cn1cc(CN2CCC3(CC2)C(=O)N(CCCc2cccnc2)C(=O)N3Cc2ccccc2)c2ccccc21`, the IC90 is over 6.33 µM. The IC50 (PBLUC_HILL_SLOPE 1.35, PBLUC_R_SQUARED 0.738, read-out: LUCIFERASE INFECTION ASSAY - IC50) came out at 3.23 µM.
As for `CNc1ncnc(NNC(=O)Nc2ccc(Cl)cc2)c1[N+](=O)[O-]`, the IC90 is over 9.77 µM. Further, the IC50 (PBLUC_HILL_SLOPE 3.27, PBLUC_R_SQUARED 0.316, read-out: LUCIFERASE INFECTION ASSAY - IC50) was determined as 5.92 µM.
For `Cc1cc(C)cc(NC(=O)c2cc(C(C)(C)C)n(-c3ccccc3)c2C)c1`, the IC90 is 5.09 µM. Moreover, the IC50 (PBLUC_HILL_SLOPE 2.05, PBLUC_R_SQUARED 0.76, read-out: LUCIFERASE INFECTION ASSAY - IC50) is 1.74 µM.
On to `CCc1nc(CN2CC=C(c3c[nH]c4ccccc34)CC2)cs1`, for which the IC90 stood at 7.32 µM. For the same molecule, under “HEPG2TOX_HILL_SLOPE 12.8, HEPG2TOX_R_SQUARED 0.446, PBLUC_HILL_SLOPE 9.90, 7.64, PBLUC_R_SQUARED 0.0237, 0.266, read-out: LUCIFERASE INFECTION ASSAY - IC50”, the IC50 was found to be 5.75 µM.
Turning to `CCOC(=O)c1cc(C#N)c(N2CCN(S(=O)(=O)c3ccccc3Cl)CC2)nc1C(F)(F)F`, the IC90 is over 6.56 µM. Further, the IC50 under setting [1] is over 6.56 µM.
As to `Cc1cc(C(=O)OCc2ccc(-n3nc(C)cc3C)cc2)c2ccccc2n1`, the IC90 stood at 4.21 µM. Also, the IC50 (HEPG2TOX_HILL_SLOPE 1.96, HEPG2TOX_R_SQUARED 0.0908, PBLUC_HILL_SLOPE 15.9, PBLUC_R_SQUARED 0.28, read-out: LUCIFERASE INFECTION ASSAY - IC50) came to 3.66 µM.
In the case of `CSc1ccc(-c2cn3c(-c4ccc(CO)cc4)cnc3cn2)cc1`, the IC90 is over 9.5 µM. Besides, the IC50 under setting [1] is over 9.5 µM.

As a reminder, the IC50 is the concentration that inhibits the measured activity by half. The term IC90 denotes the point of the concentration-response curve where the effect stands at 90%.
